Experimental data from patent US20210115104A1, “AMYLIN ANALOGUES” (Zealand Pharma A/S, priority 2015, published 2021).
*1 amine or outer side, *2 acyl side, *3 side chain or, on linkers, in order; H or OH if unused. Where a SMILES comes first, the peptide text is derived from it. Bridges are numbered along the chain shown (N, C = ends). [ ]: non-standard residue; d: D form. The star is where a group is joined. C20 diacid = O=C(O)CCCCCCCCCCCCCCCCCCC(=O)*; γGlu = O=C(O)[C@H](CCC(=O)[*:2])N[*:1]; Hyp = O=C(O)[C@@H]1C[C@@H](O)CN1; NMeI = CC[C@H](C)[C@H](NC)C(=O)O; Aad = N[C@@H](CCCC(=O)O)C(=O)O; Orn = NCCC[C@H](N)C(=O)O; Sar = CNCC(=O)O

How the values were obtained:
[1] = biological target: T1, human calcitonin receptor (hCTR2) (Homo sapiens, UniProt P30988); assay: hCTR2 cAMP assay (AlphaScreen) in COS7 cells; format: cell-based; conditions: cAMP induction, COS7 cells expressing hCTR2; Table 1; read-out: hCTR2 EC50
T1 construct: expressed in transfected cells
T1 sequence (P30988 25-474): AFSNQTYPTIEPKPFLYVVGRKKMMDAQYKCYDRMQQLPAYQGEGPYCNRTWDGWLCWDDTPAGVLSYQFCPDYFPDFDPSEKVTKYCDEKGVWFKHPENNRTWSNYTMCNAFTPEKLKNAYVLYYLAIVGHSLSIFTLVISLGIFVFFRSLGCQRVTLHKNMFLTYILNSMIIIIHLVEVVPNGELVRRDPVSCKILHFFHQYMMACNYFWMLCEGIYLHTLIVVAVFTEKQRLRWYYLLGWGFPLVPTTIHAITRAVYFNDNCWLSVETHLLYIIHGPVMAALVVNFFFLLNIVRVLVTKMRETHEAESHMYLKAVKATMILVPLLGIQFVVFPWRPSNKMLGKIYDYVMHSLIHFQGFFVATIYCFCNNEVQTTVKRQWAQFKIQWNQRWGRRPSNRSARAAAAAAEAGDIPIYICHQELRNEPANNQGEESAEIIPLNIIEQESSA
Procedure, shortened: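 cAMP induction, read by AlphaScreen after lysis, gives EC50 values via 4PL curve fitting. Peptides were applied at rising concentrations for 15 min at 37 °C, with IBMX and 0.1% casein in HEPES-buffered Tyrode pH 7.4, to COS7 cells (no endogenous RAMPs) stably expressing human CTR2.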

[2] = biological target: T2, human amylin receptor 3 (hAMYR3), hCTR2 co-expressed with hRAMP3 (Homo sapiens, UniProt O60896+P30988); assay: hAMYR3 cAMP assay (AlphaScreen) in COS7 cells; format: cell-based; conditions: cAMP induction, COS7 cells expressing hAMYR3; Table 1; read-out: hAMYR3 EC50
T2 construct: expressed in transfected cells
T2 sequence (P30988 25-474): T1 sequence (P30988 25-474)
T2 sequence (O60896 24-148 partner): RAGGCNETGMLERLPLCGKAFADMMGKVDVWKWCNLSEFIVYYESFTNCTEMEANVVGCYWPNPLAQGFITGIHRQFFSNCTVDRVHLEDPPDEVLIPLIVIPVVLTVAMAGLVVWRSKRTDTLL
Procedure, shortened: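 EC50 values derive from 4PL curve fits of cAMP (AlphaScreen) in lysates of RAMP-naive COS7 cells stably carrying hCTR2 plus hRAMP3. Peptide dilution series were applied for 15 min at 37 °C in pH 7.4 Tyrode buffer containing 100 µM IBMX and 0.1% casein.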

| SMILES | EC50 [1] [nM] | EC50 [2] [nM] |
| --- | --- | --- |
| CC[C@H](C)[C@@H](C(=O)N[C@@H](CC(C)C)C(=O)N[C@@H](CO)C(=O)N[C@@H](CO)C(=O)N[C@H](C(=O)N[C@@H](CCC(=O)O)C(=O)N[C@H](C(=O)NCC(=O)N[C@@H](CO)C(=O)N[C@@H](Cc1ccccc1)C(=O)N[C@H](C(=O)N1CCC[C@H]1C(N)=O)[C@@H](C)O)C(C)C)[C@@H](C)O)N(C)C(=O)[C@H](C)NC(=O)CN(C)C(=O)[C@H](Cc1ccccc1)NC(=O)[C@H](CO)NC(=O)[C@H](CO)NC(=O)[C@H](CCCNC(=N)N)NC(=O)[C@H](CCC(N)=O)NC(=O)[C@H](CC(C)C)NC(=O)[C@H](Cc1ccccc1)NC(=O)[C@H](Cc1c[nH]cn1)NC(=O)[C@H](C)NC(=O)[C@H](CC(C)C)NC(=O)[C@H](CCCNC(=N)N)NC(=O)[C@H](CCC(=O)O)NC(=O)[C@@H](NC(=O)[C@H](C)NC(=O)[C@@H]1CSSC[C@H](NC(=O)[C@H](CCCNC(=N)N)NC(=O)CC[C@H](NC(=O)CCCCCCCCCCCCCCCCCCC(=O)O)C(=O)O)C(=O)NCC(=O)N[C@@H]([C@@H](C)O)C(=O)N[C@@H](C)C(=O)N[C@@H]([C@@H](C)O)C(=O)N1)[C@@H](C)O [Compound 39, [19CD]-isoGlu-R-C( )-GTAT-C( )-ATERLAHFLQRSSF-Gly(Me)-A-Ile(Me)-LSSTEVGSFTP-NH2] ({C20 diacid-γGlu}-RCGTATCATERLAHFLQRSSF[Sar]A[NMeI]LSSTEVGSFTP-NH2; disulfide 2-7) | 0.16 | 0.22 |
| CC[C@H](C)[C@@H](C(=O)N[C@@H](CC(C)C)C(=O)N[C@@H](CO)C(=O)N[C@@H](CO)C(=O)N[C@H](C(=O)N[C@@H](CCC(=O)O)C(=O)N[C@H](C(=O)NCC(=O)N[C@@H](CO)C(=O)N[C@@H](Cc1ccccc1)C(=O)N[C@H](C(=O)N1CCC[C@H]1C(N)=O)[C@@H](C)O)C(C)C)[C@@H](C)O)N(C)C(=O)[C@H](C)NC(=O)CN(C)C(=O)[C@H](Cc1ccccc1)NC(=O)[C@H](CO)NC(=O)[C@H](CO)NC(=O)[C@H](CCCNC(=N)N)NC(=O)[C@H](CC(N)=O)NC(=O)[C@H](CC(C)C)NC(=O)[C@H](Cc1ccccc1)NC(=O)[C@H](Cc1c[nH]cn1)NC(=O)[C@H](C)NC(=O)[C@H](CC(C)C)NC(=O)[C@H](CCCNC(=N)N)NC(=O)[C@H](CCC(=O)O)NC(=O)[C@@H](NC(=O)[C@H](C)NC(=O)[C@@H]1CSSC[C@H](NC(=O)[C@H](CCCNC(=N)N)NC(=O)CC[C@H](NC(=O)CCCCCCCCCCCCCCCCCCC(=O)O)C(=O)O)C(=O)NCC(=O)N[C@@H]([C@@H](C)O)C(=O)N[C@@H](C)C(=O)N[C@@H]([C@@H](C)O)C(=O)N1)[C@@H](C)O [Compound 40, [19CD]-isoGlu-R-C( )-GTAT-C( )-ATERLAHFLNRSSF-Gly(Me)-A-Ile(Me)-LSSTEVGSFTP-NH2] ({C20 diacid-γGlu}-RCGTATCATERLAHFLNRSSF[Sar]A[NMeI]LSSTEVGSFTP-NH2; disulfide 2-7) | 0.12 | 0.19 |
| CC[C@H](C)[C@@H](C(=O)N[C@@H](CC(C)C)C(=O)N[C@@H](CO)C(=O)N[C@@H](CO)C(=O)N[C@H](C(=O)N[C@@H](CCC(=O)O)C(=O)N[C@H](C(=O)NCC(=O)N[C@@H](CO)C(=O)N[C@@H](CCCN)C(=O)N[C@H](C(=O)N1C[C@H](O)C[C@H]1C(N)=O)[C@@H](C)O)C(C)C)[C@@H](C)O)N(C)C(=O)[C@H](C)NC(=O)CN(C)C(=O)[C@H](Cc1ccccc1)NC(=O)[C@H](CO)NC(=O)[C@H](CO)NC(=O)[C@H](CCCNC(=N)N)NC(=O)[C@@H](NC(=O)[C@H](CC(C)C)NC(=O)[C@H](Cc1ccccc1)NC(=O)[C@H](CCCC(=O)O)NC(=O)[C@H](C)NC(=O)[C@H](CC(C)C)NC(=O)[C@H](CCCNC(=N)N)NC(=O)[C@H](CCC(=O)O)NC(=O)[C@@H](NC(=O)[C@H](C)NC(=O)[C@@H]1CSSC[C@H](NC(=O)[C@H](CCCNC(=N)N)NC(=O)CC[C@H](NC(=O)CCCCCCCCCCCCCCCCCCC(=O)O)C(=O)O)C(=O)NCC(=O)N[C@@H]([C@@H](C)O)C(=O)N[C@@H](C)C(=O)N[C@@H]([C@@H](C)O)C(=O)N1)[C@@H](C)O)[C@@H](C)O [Compound 44, [19CD]-isoGlu-R-C( )-GTAT-C( )-ATERLA-Aad-FLTRSSF-Gly(Me)-A-Ile(Me)-LSSTEVGS-Orn-T-Hyp-NH2] ({C20 diacid-γGlu}-RCGTATCATERLA[Aad]FLTRSSF[Sar]A[NMeI]LSSTEVGS[Orn]T[Hyp]-NH2; disulfide 2-7) | 0.2 | 0.3 |
| CC[C@H](C)[C@@H](C(=O)N[C@@H](CC(C)C)C(=O)N[C@@H](CO)C(=O)N[C@@H](CO)C(=O)N[C@H](C(=O)N[C@@H](CCC(=O)O)C(=O)N[C@H](C(=O)NCC(=O)N[C@@H](CO)C(=O)N[C@@H](CO)C(=O)N[C@H](C(=O)N1CCC[C@H]1C(N)=O)[C@@H](C)O)C(C)C)[C@@H](C)O)N(C)C(=O)[C@H](C)NC(=O)CN(C)C(=O)[C@H](Cc1ccccc1)NC(=O)[C@H](CO)NC(=O)[C@H](CO)NC(=O)[C@H](CCCNC(=N)N)NC(=O)[C@@H](NC(=O)[C@H](CC(C)C)NC(=O)[C@H](Cc1ccccc1)NC(=O)[C@H](Cc1c[nH]cn1)NC(=O)[C@H](C)NC(=O)[C@H](CC(C)C)NC(=O)[C@H](CCCNC(=N)N)NC(=O)[C@H](CCC(=O)O)NC(=O)[C@@H](NC(=O)[C@H](C)NC(=O)[C@@H]1CSSC[C@H](NC(=O)[C@H](CCCNC(=N)N)NC(=O)CC[C@H](NC(=O)CCCCCCCCCCCCCCCCCCC(=O)O)C(=O)O)C(=O)NCC(=O)N[C@@H]([C@@H](C)O)C(=O)N[C@@H](C)C(=O)N[C@@H]([C@@H](C)O)C(=O)N1)[C@@H](C)O)[C@@H](C)O [Compound 46, [19CD]-isoGlu-R-C( )-GTAT-C( )-ATERLAHFLTRSSF-Gly(Me)-A-Ile(Me)-LSSTEVGSSTP-NH2] ({C20 diacid-γGlu}-RCGTATCATERLAHFLTRSSF[Sar]A[NMeI]LSSTEVGSSTP-NH2; disulfide 2-7) | 0.1 | 0.14 |
| CC[C@H](C)[C@@H](C(=O)N[C@@H](CC(C)C)C(=O)N[C@@H](CO)C(=O)N[C@@H](CO)C(=O)N[C@H](C(=O)N[C@@H](CCC(=O)O)C(=O)N[C@H](C(=O)NCC(=O)N[C@@H](CO)C(=O)N[C@@H](CCCN)C(=O)N[C@H](C(=O)N1CCC[C@H]1C(N)=O)[C@@H](C)O)C(C)C)[C@@H](C)O)N(C)C(=O)[C@H](C)NC(=O)CN(C)C(=O)[C@H](Cc1ccccc1)NC(=O)[C@H](CO)NC(=O)[C@H](CO)NC(=O)[C@H](CCCNC(=N)N)NC(=O)[C@@H](NC(=O)[C@H](CC(C)C)NC(=O)[C@H](Cc1ccccc1)NC(=O)[C@H](Cc1c[nH]cn1)NC(=O)[C@H](C)NC(=O)[C@H](CC(C)C)NC(=O)[C@H](CCCNC(=N)N)NC(=O)[C@H](CCC(=O)O)NC(=O)[C@@H](NC(=O)[C@H](C)NC(=O)[C@@H]1CSSC[C@H](NC(=O)[C@H](CCCNC(=N)N)NC(=O)CC[C@H](NC(=O)CCCCCCCCCCCCCCCCCCC(=O)O)C(=O)O)C(=O)NCC(=O)N[C@@H]([C@@H](C)O)C(=O)N[C@@H](C)C(=O)N[C@@H]([C@@H](C)O)C(=O)N1)[C@@H](C)O)[C@@H](C)O [Compound 47, [19CD]-isoGlu-R-C( )-GTAT-C( )-ATERLAHFLTRSSF-Gly(Me)-A-Ile(Me)-LSSTEVGS-Orn-TP-NH2] ({C20 diacid-γGlu}-RCGTATCATERLAHFLTRSSF[Sar]A[NMeI]LSSTEVGS[Orn]TP-NH2; disulfide 2-7) | 0.1 | 0.19 |
| CC[C@H](C)[C@@H](C(=O)N[C@@H](CC(C)C)C(=O)N[C@@H](CO)C(=O)N[C@@H](CO)C(=O)N[C@H](C(=O)N[C@@H](CCC(=O)O)C(=O)N[C@H](C(=O)NCC(=O)N[C@@H](CO)C(=O)N[C@@H](CC(N)=O)C(=O)N[C@H](C(=O)N1C[C@H](O)C[C@H]1C(N)=O)[C@@H](C)O)C(C)C)[C@@H](C)O)N(C)C(=O)[C@H](C)NC(=O)CN(C)C(=O)[C@H](Cc1ccccc1)NC(=O)[C@H](CO)NC(=O)[C@H](CO)NC(=O)[C@H](CCCNC(=N)N)NC(=O)[C@H](CCCC(=O)O)NC(=O)[C@H](CC(C)C)NC(=O)[C@H](Cc1ccccc1)NC(=O)[C@H](Cc1c[nH]cn1)NC(=O)[C@H](C)NC(=O)[C@H](CC(C)C)NC(=O)[C@H](CCCNC(=N)N)NC(=O)[C@H](CCC(N)=O)NC(=O)[C@@H](NC(=O)[C@H](C)NC(=O)[C@@H]1CSSC[C@H](NC(=O)[C@H](CCCNC(=N)N)NC(=O)CC[C@H](NC(=O)CCCCCCCCCCCCCCCCCCC(=O)O)C(=O)O)C(=O)N[C@@H](CC(N)=O)C(=O)N[C@@H]([C@@H](C)O)C(=O)N[C@@H](C)C(=O)N[C@@H]([C@@H](C)O)C(=O)N1)[C@@H](C)O [Compound 50, [19CD]-isoGlu-R-C( )-NTAT-C( )-ATQRLAHFL-Aad-RSSF-Gly(Me)-A-Ile(Me)-LSSTEVGSNT-Hyp-NH2] ({C20 diacid-γGlu}-RCNTATCATQRLAHFL[Aad]RSSF[Sar]A[NMeI]LSSTEVGSNT[Hyp]-NH2; disulfide 2-7) | 0.12 | 0.19 |
